Experimental data from patent publication US20230382925A1, “MODULATORS OF CYSTIC FIBROSIS TRANSMEMBRANE CONDUCTANCE REGULATOR” (VERTEX PHARMACEUTICALS INCORPORATED, priority 2020, published 2023).
Read-outs that look alike come from different tables or passages of the source.

What was measured:
CFTR [1] = target: T1, CFTR (Homo sapiens, UniProt P13569); test: Membrane Potential Dye, Enteroid Assay A; type: cell-based; settings: for EC50: read-out: Ent. A EC50
Description: Base medium (ADF+++) consisted of Advanced […], 2 mM Glutamax, 10 mM HEPES, 1 μg/mL penicillin/streptomycin.
Intestinal enteroid maintenance medium (IEMMN) consisted of ADF+++, 1× B27 supplement, 1× N2 supplement, 1.25 mM N-acetyl cysteine, 10 mM Nicotinamide, 50 ng/mL hEGF, 10 nM Gastrin, 1 μg/mL hR-spondin-1, 100 ng/mL hNoggin, TGF-b type 1 inhibitor A-83-01, 100 μg/mL Primocin, 10 μM P38 MAPK inhibitor SB202190.
Bath 1 Buffer consisted of 1 mM MgCl2, 160 mM NaCl, 4.5 mM KCl, 10 mM HEPES, 10 mM Glucose, 2 mM CaCl2).
Chloride Free Buffer consisted of 1 mM Magnesium Gluconate, 2 mM Calcium Gluconate, 4.5 mM Potassium Gluconate, 160 mM Sodium Gluconate, 10 mM HEPES, 10 mM Glucose.
Bath 1 Dye Solution consisted of Bath 1 Buffer, 0.04% Pluronic F127, 20 μM Methyl Oxonol, 30 μM CaCCinh-A01, 30 μM Chicago Sky Blue.
Chloride Free Dye Solution consisted of Chloride Free Buffer, 0.04% Pluronic F127, 20 μM Methyl Oxonol, 30 μM CaCCinh-A01, 30 μM Chicago Sky Blue.
Chloride Free Dye Stimulation Solution consisted of Chloride Free Dye Solution, 10 μM forskolin, 100 μM IBMX, and 300 nM Compound III.
Human intestinal epithelial enteroid cells were obtained from the Hubrecht Institute for Developmental Biology and Stem Cell Research, Utrecht, The Netherlands and expanded in T-Flasks as previously described (Dekkers J F, Wiegerinck C L, de Jonge H R, Bronsveld I, Janssens H M, de Winter-de Groot K M, Brandsma A M, de Jong N W M, Bijvelds M J C, Scholte B J, Nieuwenhuis E E S, van den Brink S, Clevers H, van der Ent C K, Middendorp S and M Beekman J M. A functional CFTR assay using primary cystic fibrosis intestinal organoids. Nat Med. 2013 July; 19(7):939-45.).
3. Enteroid Cell Harvesting and Seeding
Cells were recovered in cell recovery solution, collected by centrifugation at 650 rpm for 5 min at 4° C., resuspended in TrypLE and incubated for 5 min at 37° C. Cells were then collected by centrifugation at 650 rpm for 5 min at 4° C. and resuspended in IEMM containing 10 μM ROCK inhibitor (RI). The cell suspension was passed through a 40 μm cell strainer and resuspended at 1×10^6 cells/mL in IEMM containing 10 μM RI. Cells were seeded at 5000 cells/well into multi-well plates and incubated for overnight at 37° C., 95% humidity and 5% CO2 prior to assay.
4. Membrane Potential Dye, Enteroid Assay A
Enteroid cells were incubated with test compound in IEMM for 18-24 hours at 37° C., 95% humidity and 5% CO2. […] Briefly, cells were washed 5 times in Bath 1 Buffer. Bath 1 Dye Solution was added, and the cells were incubated for 25 min at room temperature. Following dye incubation, cells were washed 3 times in Chloride Free Dye Solution. Chloride transport was initiated by addition of Chloride Free Dye Stimulation Solution and the fluorescence signal was read for 15 min. […] Chloride transport was then expressed as a percentage of the chloride transport following treatment with 3 μM N-[(6-amino-2-pyridyl)sulfonyl]-6-(3-fluoro-5-isobutoxy-phenyl)-2-[(4S)-2,2,4-trimethylpyrrolidin-1-yl]pyridine-3-carboxamide, 3 μM (R)-1-(2,2-difluorobenzo[d][1,3]dioxol-5-yl)-N-(1-(2,3-dihydroxypropyl)-6-fluoro-2-(1-hydroxy-2-methylpropan-2-yl)-1H-indol-5-yl)cyclopropanecarboxamide and 300 nM acute N-[2,4-bis(1,1-dimethylethyl)-5-hydroxyphenyl]-1,4-dihydro-4-oxoquinoline-3-carboxamide triple combination control (% Activity).

CFTR [2] = target: T1, CFTR; test: Membrane Potential Dye, Enteroid Assay B; type: cell-based
How it was run: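 Activity given as % of a triple-combination reference (1 μM and 3 μM correctors, 300 nM acute potentiator). Enteroids were preincubated 18-24 h with compound; chloride efflux then measured 15 min by methyl oxonol fluorescence after forskolin/IBMX/Compound III stimulation in chloride-free buffer containing CaCCinh-A01 and Chicago Sky Blue.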

T1 sequence (P13569 with tags, fused parts or gaps DEL508-508): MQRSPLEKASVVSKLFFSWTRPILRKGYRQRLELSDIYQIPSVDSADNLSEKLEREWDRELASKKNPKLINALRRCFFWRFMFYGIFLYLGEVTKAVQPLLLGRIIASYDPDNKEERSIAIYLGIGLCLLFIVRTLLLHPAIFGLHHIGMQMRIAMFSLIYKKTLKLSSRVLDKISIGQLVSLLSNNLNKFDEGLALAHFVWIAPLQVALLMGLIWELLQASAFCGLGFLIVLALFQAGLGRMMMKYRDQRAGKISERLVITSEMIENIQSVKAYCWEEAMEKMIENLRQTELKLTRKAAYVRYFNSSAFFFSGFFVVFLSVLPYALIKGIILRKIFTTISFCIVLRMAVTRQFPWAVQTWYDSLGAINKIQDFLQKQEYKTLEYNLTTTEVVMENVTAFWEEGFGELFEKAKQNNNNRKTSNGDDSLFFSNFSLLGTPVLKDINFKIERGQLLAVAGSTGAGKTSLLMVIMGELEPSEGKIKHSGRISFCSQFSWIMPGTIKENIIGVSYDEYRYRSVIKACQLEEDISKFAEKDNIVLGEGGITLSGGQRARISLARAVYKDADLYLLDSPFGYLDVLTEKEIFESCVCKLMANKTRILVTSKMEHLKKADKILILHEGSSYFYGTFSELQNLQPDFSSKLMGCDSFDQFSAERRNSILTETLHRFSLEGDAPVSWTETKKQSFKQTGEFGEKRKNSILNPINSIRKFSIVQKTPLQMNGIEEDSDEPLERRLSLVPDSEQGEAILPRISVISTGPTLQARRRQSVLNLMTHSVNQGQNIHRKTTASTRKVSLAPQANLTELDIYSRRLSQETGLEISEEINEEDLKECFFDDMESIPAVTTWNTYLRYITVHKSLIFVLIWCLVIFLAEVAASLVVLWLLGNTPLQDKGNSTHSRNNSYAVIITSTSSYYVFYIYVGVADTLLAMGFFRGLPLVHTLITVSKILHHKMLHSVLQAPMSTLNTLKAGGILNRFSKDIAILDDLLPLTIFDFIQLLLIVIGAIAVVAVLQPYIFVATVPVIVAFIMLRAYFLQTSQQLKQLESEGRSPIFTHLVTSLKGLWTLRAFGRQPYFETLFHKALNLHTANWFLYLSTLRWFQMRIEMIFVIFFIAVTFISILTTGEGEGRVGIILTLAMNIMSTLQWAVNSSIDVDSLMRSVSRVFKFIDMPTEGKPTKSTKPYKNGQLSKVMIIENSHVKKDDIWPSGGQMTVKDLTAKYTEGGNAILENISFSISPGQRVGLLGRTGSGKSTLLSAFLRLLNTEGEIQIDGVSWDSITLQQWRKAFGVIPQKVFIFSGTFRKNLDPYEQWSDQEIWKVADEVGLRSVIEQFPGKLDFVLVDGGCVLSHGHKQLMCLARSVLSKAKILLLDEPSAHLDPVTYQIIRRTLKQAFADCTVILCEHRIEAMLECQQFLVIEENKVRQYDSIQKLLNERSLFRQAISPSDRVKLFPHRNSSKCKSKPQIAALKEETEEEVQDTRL

Structure (SMILES) | Ent. A Max Activity (%) (CFTR [1]) | EC50 (CFTR [1]) [nM] | Ent. B Max Activity (%) (CFTR [2]; Table 9) | EC50 (CFTR [2]; Table 9, read-out: Ent. B EC50) [nM] | other results
Cc1cccc(C)c1-c1cc2nc(n1)NS(=O)(=O)c1cccc(c1)C(=O)N([C@H]1C[C@]3(CCN(C(C)C)C3)C1)[C@H](CC(C)C)CO2 (single isomer, unassigned) [Compound 33] | +++ (+++ is >60%) | < 1000 | – | – | –
Cc1cccc(C)c1-c1cc2nc(n1)NS(=O)(=O)c1cccc(c1)C(=O)N([C@H]1C[C@]3(CCN(C(C)C)C3)C1)[C@H](CC(C)C)CO2 (single isomer, unassigned) [Compound 34] | +++ (+++ is >60%) | < 1000 | – | – | –
Cc1cccc(C)c1-c1cc2nc(n1)NS(=O)(=O)c1cccc(c1)C(=O)N([C@H]1C[C@@H](CO)C1)[C@H](CC(C)C)CO2 (single isomer, unassigned) [Compound 40] | +++ (+++ is >60%) | 1000 to 3000 | – | – | –
Cc1cccc(C)c1-c1cc2nc(n1)NS(=O)(=O)c1cccc(c1)C(=O)N([C@H]1C[C@@H](OCc3ccccc3)C1)[C@H](CC(C)C)CO2 (single isomer, unassigned) [Compound 42] | ++ (++ is 30-60%) | < 1000 | – | – | –
Cc1cccc(C)c1-c1cc2nc(n1)NS(=O)(=O)c1cccc(c1)C(=O)N([C@H]1C[C@@H](O)C1)[C@H](CC(C)C)CO2 (single isomer, unassigned) [Compound 43] | +++ (+++ is >60%) | 1000 to 3000 | – | – | –
Cc1cccc(C)c1-c1cc2nc(n1)NS(=O)(=O)c1cccc(c1)C(=O)N([C@H]1C[C@@H](O)C1)[C@H](CC(C)C)CO2 (single isomer, unassigned) [Compound 44] | +++ (+++ is >60%) | < 1000 | – | – | –
Cc1cccc(C)c1-c1cc2nc(n1)NS(=O)(=O)c1cccc(c1)C(=O)N(C1CC3(CC3)C1)C(CC(F)(F)F)CO2 (single isomer, unassigned) [Compound 109, 6-(2,6-Dimethylphenyl)-2,2-dioxo-12-spiro[2.3]hexan-5-yl-11-(2,2,2-trifluoroethyl)-9-oxa-2λ^6-thia-3,5,12,19-tetrazatricyclo[12.3.1.14,8]nonadeca-1(18),4(19),5,7,14,16-hexaen-13-one] | ++ (++ is 30-60%) | 1000 to 3000 | – | – | –
Cc1cccc(C)c1-c1cc2nc(n1)NS(=O)(=O)c1cccc(c1)C(=O)N(C1CC3(CC3)C1)C(CC(F)(F)F)CO2 (single isomer, unassigned) [Compound 125, 6-(2,6-dimethylphenyl)-12-{spiro[2.3]hexan-5-yl}-11-(2,2,2-trifluoroethyl)-9-oxa-2λ^6-thia-3,5,12,19-tetraazatricyclo[12.3.1.14,8]nonadeca-1(17),4(19),5,7,14(18),15-hexaene-2,2,13-trione] | ++ (++ is 30-60%) | < 1000 | – | – | –
Cc1cccc(C)c1-c1cc2nc(n1)NS(=O)(=O)c1cccc(c1)C(=O)N(C1CC3(CCN(C)CC3)C1)C(CC1(C(F)(F)F)CC1)CO2 (single isomer, unassigned) [Compound 136, 6-(2,6-Dimethylphenyl)-12-(7-methyl-7-azaspiro[3.5]nonan-2-yl)-2,2-dioxo-11-[[1-(trifluoromethyl)cyclopropyl]methyl]-9-oxa-2λ^6-thia-3,5,12,19-tetrazatricyclo[12.3.1.14,8]nonadeca-1(18),4(19),5,7,14,16-hexaen-13-one] | +++ (+++ is >60%) | < 1000 | – | – | –
Cc1cccc(C)c1-c1cc2nc(n1)NS(=O)(=O)c1cccc(c1)C(=O)N(C1CC3(CCN(C)CC3)C1)C(CC1(C(F)(F)F)CC1)CO2 (single isomer, unassigned) [Compound 137, 6-(2,6-dimethylphenyl)-12-(7-methyl-7-azaspiro[3.5]nonan-2-yl)-2,2-dioxo-11-[[1-(trifluoromethyl)cyclopropyl]methyl]-9-oxa-2λ^6-thia-3,5,12,19-tetrazatricyclo[12.3.1.14,8]nonadeca-1(18),4(19),5,7,14,16-hexaen-13-one] | +++ (+++ is >60%) | 1000 to 3000 | – | – | –
Cc1cccc(C)c1-c1cc2nc(n1)NS(=O)(=O)c1cccc(c1)C(=O)N([C@H]1C[C@]3(CCN(C)C3)C1)[C@H](CC(C)C)CO2 (stereo in doubt) [Compound 333] | +++ (+++ is >60%) | < 1000 | – | – | –
CNC(=O)[C@H]1CC2(C1)C[C@H](N1C(=O)c3cccc(c3)S(=O)(=O)Nc3nc(cc(-c4c(C)cccc4C)n3)OC[C@H]1CC(C)C)C2 (stereo in doubt) [Compound 347] | +++ (+++ is >60%) | < 1000 | – | – | –
CC(C)C[C@@H]1COc2cc(-c3ccccc3C(C)C)nc(n2)NS(=O)(=O)c2cccc(c2)C(=O)N1C1CC2(CCN(C)CC2)C1 [Compound 11, (11R)-11-Isobutyl-6-(2-isopropylphenyl)-12-(7-methyl-7-azaspiro[3.5]nonan-2-yl)-2,2-dioxo-9-oxa-2 λ6-thia-3,5,12,19-tetrazatricyclo[12.3.1.14,8]nonadeca-1(18),4,6,8(19),14,16-hexaen-13-one] | +++ (+++ is >60%) | < 1000 | – | – | –
Cc1cccc(C)c1-c1cc2nc(n1)NS(=O)(=O)c1cccc(c1)C(=O)N(C1CC3(CCN(C(=O)COC(C)C)CC3)C1)[C@H](CC(C)C)CO2 [Compound 458] | – | – | +++ (+++ is >60%) | < 1000 | –
COCC(=O)N1CCC2(CC1)CC(N1C(=O)c3cccc(c3)S(=O)(=O)Nc3nc(cc(-c4c(C)cccc4C)n3)OC[C@H]1CC(C)C)C2 [Compound 459] | – | – | +++ (+++ is >60%) | < 1000 | –
Cc1cccc(C)c1-c1cc2nc(n1)NS(=O)(=O)c1cccc(c1)C(=O)N(C1CC3(CCN(C(=O)COC(C)(C)C)CC3)C1)[C@H](CC(C)C)CO2 [Compound 460] | – | – | +++ (+++ is >60%) | < 1000 | –
Cc1cccc(C)c1-c1cc2nc(n1)NS(=O)(=O)c1cccc(c1)C(=O)N(C1CC3(CC(N(C)C)C3)C1)[C@H](CC(C)(C)C)CO2 (stereo partly shown) [Compound 461] | – | – | +++ (+++ is >60%) | < 1000 | –
Cc1cccc(C)c1-c1cc2nc(n1)NS(=O)(=O)c1cccc(c1)C(=O)N(C1CC3(CC(N(C)C)C3)C1)[C@H](CC(C)(C)C)CO2 (stereo partly shown) [Compound 462] | – | – | +++ (+++ is >60%) | < 1000 | –
Cc1cccc(C)c1-c1cc2nc(n1)NS(=O)(=O)c1cccc(c1)C(=O)N(C1CC3(CC(N)C3)C1)[C@H](CC(C)(C)C)CO2 (stereo partly shown) [Compound 463] | – | – | +++ (+++ is >60%) | < 1000 | –
Cc1cccc(C)c1-c1cc2nc(n1)NS(=O)(=O)c1cccc(c1)C(=O)N(C1CC3(CCN(C(=O)OC(C)C)CC3)C1)[C@H](CC1(C(F)(F)F)CC1)CO2 [Compound 464] | – | – | – | – | Ent. B Max Activity (%) (CFTR [2]): +++ (+++ is >60%); EC50 (CFTR [2]; read-out: Ent. B EC50): < 1000 nM
COC1CC(N2C(=O)c3cccc(c3)S(=O)(=O)Nc3nc(cc(-c4c(C)cccc4C)n3)OC[C@H]2CC(C)C)C1 (stereo partly shown) [Compound 467] | – | – | – | – | Ent. B Max Activity (%) (CFTR [2]): +++ (+++ is >60%); EC50 (CFTR [2]; read-out: Ent. B EC50): < 1000 nM
Cc1cccc(C)c1-c1cc2nc(n1)NS(=O)(=O)c1cccc(c1)C(=O)N(C1CC3(CC3)C1)CC(C(C)C)O2 (stereo not shown) [Compound 468] | – | – | – | – | Ent. B Max Activity (%) (CFTR [2]): ++ (++ is 30-60%); EC50 (CFTR [2]; read-out: Ent. B EC50): < 1000 nM
COC(=O)N[C@H]1C[C@@H](N2C(=O)c3cccc(c3)S(=O)(=O)Nc3nc(cc(-c4c(C)cccc4C)n3)OC[C@H]2CC(C)(C)C)C1 [Compound 472] | – | – | +++ (+++ is >60%) | < 1000 | –
